For one assay, the system named is non-tumor CHO cells. Briefly: CellTiter-Glo Luminescent Cell Viability Assay. The settings on record: for IC50: Cricetulus griseus, 48 h treatment, read-out: IC50 (estimated). The format is cell-based, Chinese hamster. The protocol:
Conjugates 9b and 9e were selected based on their antitumor effects to be tested on non-tumor CHO cells in the CellTiter-Glo Luminescent Cell Viability Assay to investigate their potential selectivity for cancer cells. Following a 48 h treatment with the conjugates in the 0.10–10 µM concentration range, a concentration-dependent decrease in the luminescent signal was observed, indirectly representing the ATP production of living cells as an indicator of cell viability.
Conjugates 9b and 9e were dissolved in DMSO in 10 mM stock solutions and stored frozen until use. CHO cells were cultured in complete Dulbecco’s Modified Eagle’s Medium (DMEM, low glucose (1 g/L) supplemented with 10% fetal bovine serum, 1% Gibco GlutaMAX-I (100×) solution, 1% Gibco MEM non-essential amino acid solution (100×), and 0.1% penicillin–streptomycin mixture). The CellTiter-Glo Luminescent Cell Viability Assay (Promega Corporation, Madison, WI, USA) was performed as previously described. Cells were grown under standard cell culture conditions (37 °C, 5% CO2) and passaged at 70–80% confluency. According to the manufacturer’s protocol, CHO cells were seeded to opaque 96-well culture plates (5000 cells/100 µL complete DMEM/well) and the side rows and columns of the plate were filled with sterile phosphate-buffer saline to avoid artifacts. […] The luminescent signal was measured for each assay well with an EnSpire AlphaLisa microplate reader (Perkin Elmer, Inc., Waltham, MA, USA). […] Estimated IC50 values were calculated using non-linear regression by fitting a sigmoidal dose-response curve to the data points (log(inhibitor) vs. normalized response, variable slope, and least squares fit).
Statistical analysis (ANOVA) and estimation of IC50 values were performed in GraphPad Prism 8.0.1 (GraphPad, La Jolla, CA, USA). Estimated IC50 values were calculated using non-linear regression by fitting a sigmoidal dose-response curve to the data points (log(inhibitor) vs. normalized response, variable slope, least squares fit).

A further assay deals with A2780. As to the kind of experiment: MTT antiproliferative assay. The format is cell-based, human. How it is done: (§1) The antiproliferative properties of the tested compounds were additionally determined using the MTT assay against a panel of human adherent cancer cell lines isolated from breast (MCF-7 and MDA-MB-231), cervical (HeLa and SiHa), and ovarian (A2780) tumors and also on the NIH/3T3 fibroblast cell line (Table 3). IC50 values were calculated from a wider concentration range (0.1–30 μM) when higher than 50% cell growth inhibition was obtained at 10 μM (Table 4). Cisplatin was used as a reference compound. […] The noncancerous fibroblast cell line NIH/3T3 was used to gather preliminary data regarding the cancer selectivity of vindolin derivatives. […] The tumor selectivity of compound 9g, expressed as the ratio of IC50 on cancer cells and fibroblasts, is substantially higher than that of cisplatin (Table 4).
(§2) The antiproliferative effects of the prepared derivatives were evaluated in vitro using the MTT assay against a panel of human adherent cancer cell lines, including breast (MDA-MB-231, MCF-7), cervical (SiHa, HeLa), and ovarian (A2780) cancer cells. The noncancerous fibroblast cell line NIH/3T3 was included to obtain data concerning the tumor selectivity of the test substances. All cell lines were sourced from the European Collection of Cell Cultures (Salisbury, UK), except for SiHa (American Tissue Culture Collection (Manassas, VA, USA). All cell lines were maintained in Eagle’s Minimal Essential Medium (EMEM) supplemented with 10% fetal bovine serum (FBS), 1% non-essential amino acids, and a mixture of penicillin, streptomycin, and amphotericin B. The cells were maintained in a humidified atmosphere containing 5% CO2 at 37 °C. The media and the cell culture supplements were procured from Capricorn Scientific Ltd. (Ebsdorfergrund, Germany). Cells were seeded into 96-well microplates at 5000/well and, the next day, treated with vindoline derivatives at two concentrations (10 or 30 μM) for 72 h under cell culturing conditions. […] When higher than 50% cell growth inhibition was observed, the assay was repeated using a wide concentration range (0.1–30 μM). The IC50 values were calculated using GraphPad Prism software 10.3.1 (GraphPad Software, San Diego, CA, USA). Two independent experiments were performed with at least five replicates per condition.
(In general: Formazan colour is commonly taken as a measure of viable cells.)

In a further assay the test system is HeLa. As to the kind of experiment: MTT antiproliferative assay. The format is cell-based, human. How it is done: as §1, §2
A further assay relates to MCF-7. As to the kind of experiment: MTT antiproliferative assay. The format is cell-based, human. The protocol:
as §1, §2

The test system of a further assay is MDA-MB-231. Briefly: MTT antiproliferative assay. The format is cell-based, human. How it is done:
as §1, §2

The next assay deals with SiHa. Briefly: MTT antiproliferative assay. Type of assay: cell-based, human. How it is done: as §1, §2
A further assay has as its system NIH/3T3 (fibroblast). Briefly: MTT antiproliferative assay. The format is cell-based. The settings on record: Mus musculus, 72 h. The protocol:
as §1, §2

Assay [1] deals with panel of human adherent cancer cell lines. Briefly: MTT antiproliferative assay, whole cancer panel. Conditions: Homo sapiens. The format is cell-based. The protocol:
as §1, §2

Molecules are shown by their SMILES.

One may read the IC50 as the concentration needed to halve the response being measured. Regarding `CC[C@]12C=CCN3CC[C@@]4(c5ccc(OC)cc5N(C)[C@H]4[C@@](O)(C(=O)OC)[C@@H]1OC(=O)CCC[P+](c1ccc(OC)cc1)(c1ccc(OC)cc1)c1ccc(OC)cc1)[C@@H]32` [9b], in the assay on non-tumor CHO cells, the IC50 is 2.98 µM.
`CC[C@]12C=CCN3CC[C@@]4(c5ccc(OC)cc5N(C)[C@H]4[C@@](O)(C(=O)OC)[C@@H]1OC(=O)CCC[P+](c1cc(C)c(OC)c(C)c1)(c1cc(C)c(OC)c(C)c1)c1cc(C)c(OC)c(C)c1)[C@@H]32` [9e]: the decrease in viability in the assay on non-tumor CHO cells (1.0 µM, 48 h) is recorded as 26.4 ± 5.8%. For the same compound, the half-maximal inhibitory concentration (IC50) in the assay with non-tumor CHO cells was 1.36 µM.
Usually inhibition stands for the share of the control response that was lost under treatment. Turning to `CC[C@]12C=CCN3CC[C@@]4(c5ccc(OC)cc5N(C)[C@H]4[C@@](O)(C(=O)OC)[C@@H]1OC(=O)CCC[P+](c1ccccc1)(c1ccccc1)c1ccccn1)[C@@H]32` [9g], the inhibition at 10 µM is 79.4 ± 2.63% in the assay on A2780 (Homo sapiens, A2780, 10 μM, 72 h, read-out: Growth Inhibition (%) ± SEM); 61.5 ± 2.35% with HeLa (Homo sapiens, HeLa, 10 μM, 72 h, read-out: Growth Inhibition (%) ± SEM); 81.9 ± 0.84% with MCF-7 (Homo sapiens, MCF7, MCF-7, 10 μM, 72 h, read-out: Growth Inhibition (%) ± SEM); 72.04 ± 0.35% in the assay with MDA-MB-231 (Homo sapiens, MDA-MB-231, 10 μM, 72 h, read-out: Growth Inhibition (%) ± SEM); 62.5 ± 0.87% in the assay on SiHa (Homo sapiens, SiHa, 10 μM, 72 h, read-out: Growth Inhibition (%) ± SEM); 34.6 ± 1.11% in the assay on NIH/3T3 (fibroblast) (NIH3T3, 10 μM, read-out: Growth Inhibition (%) ± SEM). Further, the inhibition at 10 µM in assay [1] (10 μM, against all tested cancer cells, read-out: cell growth inhibition) is more than 60%. Besides, the inhibition at 30 µM in the assay on A2780 (Homo sapiens, A2780, 30 μM, 72 h, read-out: Growth Inhibition (%) ± SEM (converted)) is 85.5%; in the assay with HeLa (Homo sapiens, HeLa, 30 μM, 72 h, read-out: Growth Inhibition (%) ± SEM (converted)), 68.5%; in the assay on MCF-7 (Homo sapiens, MCF7, MCF-7, 30 μM, 72 h, read-out: Growth Inhibition (%) ± SEM (converted)), 89.9%; in the assay with MDA-MB-231 (Homo sapiens, MDA-MB-231, 30 μM, 72 h, read-out: Growth Inhibition (%) ± SEM (converted)), 87.7%; in the assay on SiHa (Homo sapiens, SiHa, 30 μM, 72 h, read-out: Growth Inhibition (%) ± SEM (converted)), 83.8%; with NIH/3T3 (fibroblast) (NIH3T3, 30 μM, read-out: Growth Inhibition (%) ± SEM (converted)) it was 77.2%. Besides, the half-inhibitory concentration (IC50) turned out to be 1.5 ± 0.2 µM with A2780 (Homo sapiens, A2780, MTT, 72 h, read-out: IC50 Value (μM) ± SEM); 6.48 ± 0.12 µM with HeLa (Homo sapiens, HeLa, MTT, 72 h, read-out: IC50 Value (μM) ± SEM); 2.56 ± 0.1 µM with MCF-7 (Homo sapiens, MCF7, MCF-7, MTT, 72 h, read-out: IC50 Value (μM) ± SEM); 3.35 ± 0.12 µM in the assay on MDA-MB-231 (Homo sapiens, MDA-MB-231, MTT, 72 h, read-out: IC50 Value (μM) ± SEM); 2.42 ± 0.05 µM in the assay on SiHa (Homo sapiens, SiHa, MTT, 72 h, read-out: IC50 Value (μM) ± SEM); 14.37 ± 0.02 µM with NIH/3T3 (fibroblast) (NIH3T3, MTT, read-out: IC50 Value (μM) ± SEM). In assay [1] (range over the cancer cells), this compound displayed an IC50 of 1.5 to 6.48 µM. Besides, the “Selectivity Ratio” value is on record as 0.10 with A2780 (ratio of IC50 on A2780 cells and NIH/3T3 fibroblasts); 0.45 with HeLa (ratio of IC50 on HeLa cells and NIH/3T3 fibroblasts); 0.18 in the assay with MCF-7 (ratio of IC50 on MCF-7 cells and NIH/3T3 fibroblasts); 0.23 in the assay on MDA-MB-231 (ratio of IC50 on MDA-MB-231 cells and NIH/3T3 fibroblasts); 0.17 with SiHa (ratio of IC50 on SiHa cells and NIH/3T3 fibroblasts).

The values above are taken from paper PMC12028158, “Synthesis and In Vitro Evaluation of the Anticancer Effect of Novel Phosphonium Vindoline Derivatives” (International Journal of Molecular Sciences, 2025).
